Source: US4826966A, “Radioiodinated branched carbohydrates” (The United States of America as represented by the United …, priority 1988, dated 1989)

Assay: Distribution of radioactivity in tissues of female rats after intravenous administration
Type: in vivo
Conditions: for Distribution of radioactivity in brain / Distribution of radioactivity in thyroid: no unit in table; for Distribution of radioactivity in brain: b28 gives percent dose/g; for Distribution of radioactivity in thyroid: percent
Protocol: The distribution of radioactivity in tissues of female rats at 5 minutes, 15 minutes, 30 minutes and 60 minutes after intravenous administration of the iodinated compound is shown in the following table. The level of accumulation of radioactivity in the brain after injection of this agent was a significant 1.65 percent dose/g at 5 minutes but the blood levels were also high resulting in blood ratios of 1.6/1 at 5 minutes.

[1] = 1 h (head printed 1 HT/R), intravenous

CO[C@@H]1O[C@H](COC(C)=O)[C@@H](OC(C)=O)[C@@H](OC(C)=O)[C@@H]1/C=C/[125I] [methyl-2-deoxy-2-(E)-[^125 I]-iodovinyl-2,4,6-O-triacetyl-β-D-altropyranoside]
Distribution of radioactivity in brain (5 min, intravenous): 1.6525
Distribution of radioactivity in thyroid (5 min, intravenous): 20.6441
blood levels (5 minutes, intravenous, in words): high
Distribution of radioactivity in thyroid (15 min, intravenous): 18.9149
Distribution of radioactivity in thyroid (30 min, intravenous): 25.7085
Distribution of radioactivity in brain [1]: 0.7237
Distribution of radioactivity in thyroid [1]: 33.4920
brain retention compared with the peak uptake at 5 minutes (60 minutes vs 5 minutes, intravenous): 50%
accumulation of activity in the thyroid (60 minutes, intravenous): 33.5%
stability to in vivo deiodination (from thyroid accumulation at 60 minutes, in words): demonstrated the stability of this agent to in vivo deiodination
retention in the brain (in words) (up to 60 minutes, intravenous): prolonged retention in the brain
